# In ChEMBL document CHEMBL1201862, “PubChem BioAssay data set” (2004):
#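 Results reflect a 48-hour exposure of cells in 96-well plates to compound at five concentrations. GI50 marks 50% less growth.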 The source made the active and inactive calls. No stated cut-off is given here; in the data, active = GI50 up to about 1.1 µM and inactive = higher.
# Experiments:
# Test in all cases: inhibition of tumour cell growth, NCI panel, 48 h
# UO-31 = system: UO-31
# HT-29 = system: HT-29
# SF-295 = system: SF-295
# COLO 205 = system: COLO 205
# NCI-H460 = system: NCI-H460
# SF-268 = system: SF-268
# LOX IMVI = system: LOX IMVI
# HCC 2998 = system: HCC 2998
# OVCAR-8 = system: OVCAR-8
# M19-MEL = system: M19-MEL
# CAKI-1 = system: CAKI-1
# SNB-19 = system: SNB-19
# HL-60 = system: HL-60
# UACC-257 = system: UACC-257
# K562 = system: K562
# SK-MEL-28 = system: SK-MEL-28
# IGROV-1 = system: IGROV-1
# OVCAR-4 = system: OVCAR-4
# OVCAR-5 = system: OVCAR-5
# TK-10 = system: TK-10
# DMS-114 = system: DMS-114
# A549 = system: A549
# KM-20L2 = system: KM-20L2
# RPMI-8226 = system: RPMI-8226
# EKVX = system: EKVX
# SK-MEL-5 = system: SK-MEL-5
# NCI-H226 = system: NCI-H226
# SK-MEL-2 = system: SK-MEL-2
# A498 = system: A498
# SW-620 = system: SW-620
# KM12 = system: KM12
# SNB-78 = system: SNB-78
# SK-OV-3 = system: SK-OV-3
# HCT-116 = system: HCT-116
# SNB-75 = system: SNB-75
# NCI-H522 = system: NCI-H522
# RXF 631 = system: RXF 631
# HOP-62 = system: HOP-62
# UACC-62 = system: UACC-62
# DMS-273 = system: DMS-273
# OVCAR-3 = system: OVCAR-3
# NCI-H23 = system: NCI-H23
# ACHN = system: ACHN
# LXFL 529 = system: LXFL 529
# U-251 = system: U-251
# SF-539 = system: SF-539
# SN12C = system: SN12C
# SR = system: SR
# MOLT-4 = system: MOLT-4
# XF498 = system: XF498
# 786-0 = system: 786-0
# DLD-1 = system: DLD-1
# M14 = system: M14
# HCT-15 = system: HCT-15
compound,measurement,setting,value
O=C(O)/C(=C/c1ccccc1[N+](=O)[O-])c1ccccc1,GI50,UO-31,> 100 µM (inactive)
same,GI50,HT-29,> 100 µM (inactive)
same,GI50,SF-295,> 100 µM (inactive)
same,GI50,COLO 205,> 100 µM (inactive)
same,GI50,NCI-H460,> 100 µM (inactive)
same,GI50,SF-268,> 100 µM (inactive)
same,GI50,LOX IMVI,> 100 µM (inactive)
same,GI50,HCC 2998,> 100 µM (inactive)
same,GI50,OVCAR-8,> 100 µM (inactive)
same,GI50,M19-MEL,> 100 µM (inactive)
same,GI50,CAKI-1,> 100 µM (inactive)
same,GI50,SNB-19,> 100 µM (inactive)
same,GI50,HL-60,> 100 µM (inactive)
same,GI50,UACC-257,> 100 µM (inactive)
same,GI50,K562,> 100 µM (inactive)
same,GI50,SK-MEL-28,> 100 µM (inactive)
same,GI50,IGROV-1,> 100 µM (inactive)
same,GI50,OVCAR-4,> 100 µM (inactive)
same,GI50,OVCAR-5,> 100 µM (inactive)
same,GI50,TK-10,> 100 µM (inactive)
same,GI50,DMS-114,> 100 µM (inactive)
same,GI50,A549,> 100 µM (inactive)
same,GI50,KM-20L2,> 100 µM (inactive)
same,GI50,RPMI-8226,> 100 µM (inactive)
same,GI50,EKVX,> 100 µM (inactive)
same,GI50,SK-MEL-5,> 100 µM (inactive)
same,GI50,NCI-H226,> 100 µM (inactive)
same,GI50,SK-MEL-2,> 100 µM (inactive)
same,GI50,A498,> 100 µM (inactive)
same,GI50,SW-620,> 100 µM (inactive)
same,GI50,KM12,> 100 µM (inactive)
same,GI50,SNB-78,> 100 µM (inactive)
same,GI50,SK-OV-3,> 100 µM (inactive)
same,GI50,HCT-116,> 100 µM (inactive)
same,GI50,SNB-75,> 100 µM (inactive)
same,GI50,NCI-H522,> 100 µM (inactive)
same,GI50,RXF 631,> 100 µM (inactive)
same,GI50,HOP-62,> 100 µM (inactive)
same,GI50,UACC-62,> 100 µM (inactive)
same,GI50,DMS-273,> 100 µM (inactive)
same,GI50,OVCAR-3,> 100 µM (inactive)
same,GI50,NCI-H23,> 100 µM (inactive)
same,GI50,ACHN,> 100 µM (inactive)
same,GI50,LXFL 529,> 100 µM (inactive)
same,GI50,U-251,> 100 µM (inactive)
same,GI50,SF-539,> 100 µM (inactive)
same,GI50,SN12C,> 100 µM (inactive)
same,GI50,SR,> 100 µM (inactive)
same,GI50,MOLT-4,> 100 µM (inactive)
same,GI50,XF498,> 100 µM (inactive)
same,GI50,786-0,> 100 µM (inactive)
same,GI50,DLD-1,> 100 µM (inactive)
same,GI50,M14,> 100 µM (inactive)
same,GI50,HCT-15,> 100 µM
